Data reported in ChEMBL document CHEMBL1152055, “Synthesis and biological evaluation of four stereoisomers of PDMP-analogue, N-(2-decylamino-3-hydroxy-3-phenylprop-1-yl)--valienamine, and related compounds” (Bioorg Med Chem Lett, 1997).

What was measured:
[1] = molecular target: T1, Lysosomal acid glucosylceramidase (Mus musculus, UniProt P17439); assay: Compound tested for inhibitory activity against beta-glucocerebrosidase enzyme at a concentration of 1.0*10e-4M; no inhibitory activity
T1 sequence (P17439 whole entry): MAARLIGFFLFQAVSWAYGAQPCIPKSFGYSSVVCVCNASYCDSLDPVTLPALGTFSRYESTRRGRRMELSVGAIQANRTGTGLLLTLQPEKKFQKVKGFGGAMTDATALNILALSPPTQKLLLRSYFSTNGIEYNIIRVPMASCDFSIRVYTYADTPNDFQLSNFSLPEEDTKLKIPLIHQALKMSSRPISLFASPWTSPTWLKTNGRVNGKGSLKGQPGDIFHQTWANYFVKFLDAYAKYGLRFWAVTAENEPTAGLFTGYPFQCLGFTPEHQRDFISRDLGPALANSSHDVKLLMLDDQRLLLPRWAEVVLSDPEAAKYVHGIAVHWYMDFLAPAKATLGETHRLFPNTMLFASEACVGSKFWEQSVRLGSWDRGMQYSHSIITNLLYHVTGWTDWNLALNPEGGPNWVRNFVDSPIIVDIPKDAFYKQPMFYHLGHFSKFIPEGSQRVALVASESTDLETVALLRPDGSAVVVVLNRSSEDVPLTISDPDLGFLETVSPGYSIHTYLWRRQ

[2] = molecular target: T2, Ceramide glucosyltransferase (Homo sapiens, UniProt Q16739); assay: Compound tested for inhibitory activity against glucosylceramide synthase enzyme at a concentration of 1.0*10e-4M; no inhibitory activity
T2 sequence (Q16739 whole entry): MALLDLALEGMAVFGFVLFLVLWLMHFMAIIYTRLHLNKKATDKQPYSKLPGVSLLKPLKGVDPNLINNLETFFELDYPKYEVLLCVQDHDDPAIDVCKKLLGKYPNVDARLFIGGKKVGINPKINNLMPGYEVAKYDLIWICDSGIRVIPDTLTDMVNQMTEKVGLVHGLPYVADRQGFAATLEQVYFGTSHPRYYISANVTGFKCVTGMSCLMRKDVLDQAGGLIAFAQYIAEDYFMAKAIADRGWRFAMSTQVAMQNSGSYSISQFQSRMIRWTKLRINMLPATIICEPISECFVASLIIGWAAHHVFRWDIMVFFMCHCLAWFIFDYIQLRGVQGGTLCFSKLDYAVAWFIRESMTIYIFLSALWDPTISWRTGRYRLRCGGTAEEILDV

[3] = molecular target: T1, Lysosomal acid glucosylceramidase; assay: Compound tested for inhibitory activity against beta-glucocerebrosidase enzyme
[4] = molecular target: T2, Ceramide glucosyltransferase; assay: Compound tested for inhibitory activity against glucosylceramide synthase enzyme

Compound | IC50 [1] | IC50 [2] | IC50 [3] [µM] | IC50 [4] [µM]
CCCCCCCCCC(=O)N[C@H](CN[C@@H]1C=C(CO)[C@@H](O)[C@H](O)[C@@H]1O)[C@H](O)c1ccccc1 | – | No inhibition | 0.7 | –
CCCCCCCCCC(=O)N[C@@H](CN[C@@H]1C=C(CO)[C@@H](O)[C@H](O)[C@@H]1O)[C@@H](O)c1ccccc1 | – | No inhibition | 0.3 | –
CCCCCCCCCC(=O)N[C@H](CNC1CC(CO)C(O)C(O)C1O)[C@@H](O)c1ccccc1 (stereo not given in full) | – | No inhibition | 7 | –
CCCCCCCCCC(=O)N[C@@H](CNC1CC(CO)C(O)C(O)C1O)[C@@H](O)c1ccccc1 (stereo not given in full) | – | No inhibition | 20 | –

Further lines, results first:

IC50 [1] | IC50 [2] | IC50 [3] [µM] | IC50 [4] [µM] | Compound
No inhibition | No inhibition | – | – | CCCCCCCCCC(=O)N[C@H](CN[C@H]1C=C(CO)[C@@H](O)[C@H](O)[C@@H]1O)[C@H](O)c1ccccc1
– | No inhibition | 10 | – | CCCCCCCCCC(=O)N[C@H](CNC1CC(CO)C(O)C(O)C1O)[C@H](O)c1ccccc1 (stereo not given in full)
No inhibition | – | – | 23 | CCCCCCCCCC(=O)N[C@H](CN1CCOCC1)[C@H](O)c1ccccc1
– | No inhibition | 0.7 | – | CCCCCCCCCC(=O)N[C@H](CN[C@@H]1C=C(CO)[C@@H](O)[C@H](O)[C@@H]1O)[C@@H](O)c1ccccc1
– | No inhibition | 0.5 | – | CCCCCCCCCC(=O)N[C@@H](CN[C@@H]1C=C(CO)[C@@H](O)[C@H](O)[C@@H]1O)[C@H](O)c1ccccc1
– | No inhibition | 5 | – | CCCCCCCCCC(=O)N[C@@H](CNC1CC(CO)C(O)C(O)C1O)[C@H](O)c1ccccc1 (stereo not given in full)
